Experimental data as given in ChEMBL document CHEMBL1201861, “Genomics of Drug Sensitity in Cancer screening data, Wellcome Trust Sanger Institute”.

Key:
Assay in all cases: cells
NCI-H596 = type: functional, cell-based, Homo sapiens; conditions: Homo sapiens, NCI-H596;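 further: growth inhibition of NCI-H596 cells, read out with a cell viability assay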
Description: SANGER: Inhibition of human NCI-H596 cell growth in a cell viability assay.

GMS-10 = type: functional, cell-based, Homo sapiens; conditions: Homo sapiens, GMS-10;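 further: growth inhibition of GMS-10 cells, read out as cell viability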
Description: SANGER: Inhibition of human GMS-10 cell growth in a cell viability assay.

NCI-H650 = type: functional, cell-based, Homo sapiens; conditions: Homo sapiens, NCI-H650;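 further: growth inhibition of NCI-H650 cells, read out by a viability assay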
Description: SANGER: Inhibition of human NCI-H650 cell growth in a cell viability assay.

AGS = type: functional, cell-based, Homo sapiens; conditions: Homo sapiens, AGS;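 further: growth inhibition of AGS cells, determined with a cell viability assay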
Description: SANGER: Inhibition of human AGS cell growth in a cell viability assay.

8305C = type: functional, cell-based, Homo sapiens; conditions: Homo sapiens, 8305C
Description: SANGER: Inhibition of human 8305C cell growth in a cell viability assay.

OPM-2 = type: functional, cell-based, Homo sapiens; conditions: Homo sapiens, OPM-2;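 further: growth of OPM-2 cells measured with a viability assay, IC50 for suppression of proliferation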
Description: SANGER: Inhibition of human OPM-2 cell growth in a cell viability assay.

CHL-1 = type: functional, cell-based, Homo sapiens; conditions: Homo sapiens, CHL-1;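 further: cell growth inhibition, read out with a cell viability assay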
Description: SANGER: Inhibition of human CHL-1 cell growth in a cell viability assay.

TCC-SUP = type: functional, cell-based, Homo sapiens; conditions: Homo sapiens, TCC-SUP;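 further: growth inhibition of TCC-SUP cells, read out with a cell viability assay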
Description: SANGER: Inhibition of human TCCSUP cell growth in a cell viability assay.

YKG-1 = type: functional, cell-based, Homo sapiens; conditions: Homo sapiens, YKG-1;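 further: cell growth inhibition, read out with a viability assay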
Description: SANGER: Inhibition of human YKG-1 cell growth in a cell viability assay.

SCC-3 = type: functional, cell-based, Homo sapiens; conditions: Homo sapiens, SCC-3;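 further: cell viability assay measuring inhibition of SCC-3 cell growth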
Description: SANGER: Inhibition of human SCC-3 cell growth in a cell viability assay.

HTC-C3 = type: functional, cell-based, Homo sapiens; conditions: Homo sapiens, HTC-C3;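 further: inhibition of cell growth, read out with a cell viability assay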
Description: SANGER: Inhibition of human HTC-C3 cell growth in a cell viability assay.

A2780 = type: functional, cell-based, Homo sapiens; conditions: Homo sapiens, A2780;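 further: growth inhibition of A2780 cells, read out with a cell viability assay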
Description: SANGER: Inhibition of human A2780 cell growth in a cell viability assay.

SK-HEP1 = type: functional, cell-based, Homo sapiens, SK-HEP-1; conditions: Homo sapiens, SK-HEP1;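 further: cell viability readout used to quantify reduction in proliferation of human SK-HEP-1 cells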
Description: SANGER: Inhibition of human SK-HEP-1 cell growth in a cell viability assay.

DOK = type: functional, cell-based, Homo sapiens; conditions: Homo sapiens, DOK;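 further: cell viability assay read-out, values reflect inhibition of cell growth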
Description: SANGER: Inhibition of human DOK cell growth in a cell viability assay.

EHEB = type: functional, cell-based, Homo sapiens; conditions: Homo sapiens, EHEB;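 further: growth inhibition of human EHEB cells, read out with a cell viability assay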
Description: SANGER: Inhibition of human EHEB cell growth in a cell viability assay.

NCI-H292 = type: functional, cell-based, Homo sapiens; conditions: Homo sapiens, NCI-H292;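 further: growth inhibition of NCI-H292 cells, read out with a cell viability assay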
Description: SANGER: Inhibition of human NCI-H292 cell growth in a cell viability assay.

COR-L105 = type: functional, cell-based, Homo sapiens; conditions: Homo sapiens, COR-L105;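 further: cell growth inhibition determined with a viability assay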
Description: SANGER: Inhibition of human COR-L105 cell growth in a cell viability assay.

SW1710 = type: functional, cell-based, Homo sapiens; conditions: Homo sapiens, SW1710;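 further: growth inhibition of SW1710 cells, determined with a cell viability assay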
Description: SANGER: Inhibition of human SW1710 cell growth in a cell viability assay.

A-427 = type: functional, cell-based, Homo sapiens; conditions: Homo sapiens, A-427;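 further: growth inhibition of human A-427 cells, read out by a cell viability assay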
Description: SANGER: Inhibition of human A427 cell growth in a cell viability assay.

U-118-MG = type: functional, cell-based, Homo sapiens; conditions: Homo sapiens, U-118-MG
Description: SANGER: Inhibition of human U-118-MG cell growth in a cell viability assay.

SR = type: functional, cell-based, Homo sapiens; conditions: Homo sapiens, SR
Description: SANGER: Inhibition of human SR cell growth in a cell viability assay.

T47D = type: functional, cell-based, Homo sapiens; conditions: Homo sapiens, T47D;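 further: growth inhibition of human T47D cells, measured with a cell viability assay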
Description: SANGER: Inhibition of human T47D cell growth in a cell viability assay.

CAL-27 = type: functional, cell-based, Homo sapiens; conditions: Homo sapiens, CAL-27;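 further: Viability-based readout, IC50 reflecting inhibition of CAL-27 cell growth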
Description: SANGER: Inhibition of human CAL-27 cell growth in a cell viability assay.

NCI-H727 = type: functional, cell-based, Homo sapiens; conditions: Homo sapiens, NCI-H727;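 further: growth inhibition of human NCI-H727 cells, read out with a cell viability assay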
Description: SANGER: Inhibition of human NCI-H727 cell growth in a cell viability assay.

SW780 = type: functional, cell-based, Homo sapiens; conditions: Homo sapiens, SW780;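 further: growth inhibition of the cells, read out with a cell viability assay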
Description: SANGER: Inhibition of human SW780 cell growth in a cell viability assay.

NCI-H441 = type: functional, cell-based, Homo sapiens; conditions: Homo sapiens, NCI-H441;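 further: growth inhibition of NCI-H441 cells, read out with a cell viability assay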
Description: SANGER: Inhibition of human NCI-H441 cell growth in a cell viability assay.

NCI-H2030 = type: functional, cell-based, Homo sapiens; conditions: Homo sapiens, NCI-H2030;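 further: growth inhibition of human NCI-H2030 cells, read out by a cell viability assay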
Description: SANGER: Inhibition of human NCI-H2030 cell growth in a cell viability assay.

Hs-578T = type: functional, cell-based, Homo sapiens; conditions: Homo sapiens, Hs-578T
Description: SANGER: Inhibition of human Hs-578-T cell growth in a cell viability assay.

NCI-H1694 = type: functional, cell-based, Homo sapiens; conditions: Homo sapiens, NCI-H1694;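 further: cell viability assay measuring inhibition of growth in human NCI-H1694 cells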
Description: SANGER: Inhibition of human NCI-H1694 cell growth in a cell viability assay.

NCI-H1651 = type: functional, cell-based, Homo sapiens; conditions: Homo sapiens, NCI-H1651;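 further: Read-out is a cell viability assay, with IC50 expressing inhibition of NCI-H1651 cell growth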
Description: SANGER: Inhibition of human NCI-H1651 cell growth in a cell viability assay.

PC-14 = type: functional, cell-based, Homo sapiens; conditions: Homo sapiens, PC-14;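 further: cell viability assay measuring inhibition of PC-14 cell growth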
Description: SANGER: Inhibition of human PC-14 cell growth in a cell viability assay.

HOP-92 = type: functional, cell-based, Homo sapiens; conditions: Homo sapiens, HOP-92;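 further: cell viability readout, with IC50 reflecting inhibition of HOP-92 cell growth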
Description: SANGER: Inhibition of human HOP-92 cell growth in a cell viability assay.

NCI-H2122 = type: functional, cell-based, Homo sapiens; conditions: Homo sapiens, NCI-H2122;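 further: growth inhibition of the cells, read out with a cell viability assay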
Description: SANGER: Inhibition of human NCI-H2122 cell growth in a cell viability assay.

HCT-15 = type: functional, cell-based, Homo sapiens; conditions: Homo sapiens, HCT-15;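 further: cell viability readout, IC50 reflecting suppression of HCT-15 cell growth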
Description: SANGER: Inhibition of human HCT-15 cell growth in a cell viability assay.

NCI-H358 = type: functional, cell-based, Homo sapiens; conditions: Homo sapiens, NCI-H358;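 further: growth inhibition of NCI-H358 human cells, read out with a cell viability assay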
Description: SANGER: Inhibition of human NCI-H358 cell growth in a cell viability assay.

SK-MM-2 = type: functional, cell-based, Homo sapiens; conditions: Homo sapiens, SK-MM-2;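 further: growth inhibition of human SK-MM-2 cells, read out with a cell viability assay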
Description: SANGER: Inhibition of human SK-MM-2 cell growth in a cell viability assay.

COLO-679 = type: functional, cell-based, Homo sapiens; conditions: Homo sapiens, COLO-679
Description: SANGER: Inhibition of human COLO-679 cell growth in a cell viability assay.

OE33 = type: functional, cell-based, Homo sapiens; conditions: Homo sapiens, OE33;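 further: growth inhibition of human OE33 cells, measured by a cell viability assay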
Description: SANGER: Inhibition of human OE33 cell growth in a cell viability assay.

HuO-3N1 = type: functional, cell-based, Homo sapiens; conditions: Homo sapiens, HuO-3N1;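 further: cell viability readout used to measure how strongly compounds suppress proliferation of human HuO-3N1 cells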
Description: SANGER: Inhibition of human HuO-3N1 cell growth in a cell viability assay.

SIMA = type: functional, cell-based, Homo sapiens; conditions: Homo sapiens, SIMA;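 further: growth inhibition of SIMA cells, measured with a cell viability readout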
Description: SANGER: Inhibition of human SIMA cell growth in a cell viability assay.

NCI-H1793 = type: functional, cell-based, Homo sapiens; conditions: Homo sapiens, NCI-H1793;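 further: cell growth inhibition, read out by a cell viability assay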
Description: SANGER: Inhibition of human NCI-H1793 cell growth in a cell viability assay.

CaR-1 = type: functional, cell-based, Homo sapiens; conditions: Homo sapiens, CaR-1;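 further: growth inhibition of human CaR-1 cancer cells, read out with a cell viability assay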
Description: SANGER: Inhibition of human CaR-1 cell growth in a cell viability assay.

A2058 = type: functional, cell-based, Homo sapiens; conditions: Homo sapiens, A2058;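 further: reduction of A2058 cell growth, read out with a viability assay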
Description: SANGER: Inhibition of human A2058 cell growth in a cell viability assay.

CMK = type: functional, cell-based, Homo sapiens; conditions: Homo sapiens, CMK;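 further: growth inhibition of CMK cells, read out as cell viability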
Description: SANGER: Inhibition of human CMK cell growth in a cell viability assay.

SCC-4 = type: functional, cell-based, Homo sapiens; conditions: Homo sapiens, SCC-4;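 further: growth inhibition of human SCC-4 cells, read out as cell viability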
Description: SANGER: Inhibition of human SCC-4 cell growth in a cell viability assay.

UACC-893 = type: functional, cell-based, Homo sapiens; conditions: Homo sapiens, UACC-893
Description: SANGER: Inhibition of human UACC-893 cell growth in a cell viability assay.

RPMI-7951 = type: functional, cell-based, Homo sapiens; conditions: Homo sapiens, RPMI-7951
Description: SANGER: Inhibition of human RPMI-7951 cell growth in a cell viability assay.

BEN = type: functional, cell-based, Homo sapiens; conditions: Homo sapiens, BEN;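 further: growth inhibition of the BEN cell line, read out with a cell viability assay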
Description: SANGER: Inhibition of human BEN cell growth in a cell viability assay.

Structure (SMILES): Nc1ccn([C@@H]2O[C@H](CO)[C@@H](O)C2(F)F)c(=O)n1 [GEMCITABINE]
- IC50 (NCI-H596): 225 nM
- IC50 (GMS-10): > 1020 nM
- IC50 (NCI-H650): 566 nM
- IC50 (AGS): < 4 nM
- IC50 (8305C): 9.64 nM
- IC50 (OPM-2): > 1020 nM
- IC50 (CHL-1): < 4 nM
- IC50 (TCC-SUP): > 1020 nM
- IC50 (YKG-1): < 4 nM
- IC50 (SCC-3): 89.6 nM
- IC50 (HTC-C3): 996 nM
- IC50 (A2780): < 4 nM
- IC50 (SK-HEP1): 6.14 nM
- IC50 (DOK): > 1020 nM
- IC50 (EHEB): 227 nM
- IC50 (NCI-H292): 20.8 nM
- IC50 (COR-L105): 29.4 nM
- IC50 (SW1710): < 4 nM
- IC50 (A-427): 324 nM
- IC50 (U-118-MG): > 1020 nM
- IC50 (SR): 2.12 nM
- IC50 (T47D): > 1020 nM
- IC50 (CAL-27): 35.2 nM
- IC50 (NCI-H727): 2.51 nM
- IC50 (SW780): > 1020 nM
- IC50 (NCI-H441): 5.6 nM
- IC50 (NCI-H2030): 30.4 nM
- IC50 (Hs-578T): > 1020 nM
- IC50 (NCI-H1694): 61.3 nM
- IC50 (NCI-H1651): 21.1 nM
- IC50 (PC-14): 203 nM
- IC50 (HOP-92): 951 nM
- IC50 (NCI-H2122): < 4 nM
- IC50 (HCT-15): 82.2 nM
- IC50 (NCI-H358): 7.16 nM
- IC50 (SK-MM-2): 479 nM
- IC50 (COLO-679): 10.1 nM
- IC50 (OE33): 61.2 nM
- IC50 (HuO-3N1): > 1020 nM
- IC50 (SIMA): 161 nM
- IC50 (NCI-H1793): 224 nM
- IC50 (CaR-1): 551 nM
- IC50 (A2058): 32.8 nM
- IC50 (CMK): < 4 nM
- IC50 (SCC-4): 212 nM
- IC50 (UACC-893): > 1020 nM
- IC50 (RPMI-7951): < 4 nM
- IC50 (BEN): 238 nM

Structure (SMILES): COc1cccc2c1C(=O)c1c(O)c3c(c(O)c1C2=O)C[C@@](O)(C(=O)CO)C[C@@H]3O[C@H]1C[C@H](N)[C@H](O)[C@H](C)O1 [DOXORUBICIN]
- IC50 (NCI-H596): 108 nM
- IC50 (GMS-10): > 1020 nM
- IC50 (NCI-H650): 218 nM
- IC50 (AGS): 13.3 nM
- IC50 (8305C): 63.1 nM
- IC50 (OPM-2): 502 nM
- IC50 (CHL-1): 37.7 nM
- IC50 (TCC-SUP): > 1020 nM
- IC50 (YKG-1): 18.8 nM
- IC50 (SCC-3): 67.3 nM
- IC50 (HTC-C3): 704 nM
- IC50 (A2780): 68.8 nM
- IC50 (SK-HEP1): 25.9 nM
- IC50 (DOK): 1020 nM
- IC50 (EHEB): 113 nM
- IC50 (NCI-H292): 43.8 nM
- IC50 (COR-L105): 189 nM
- IC50 (SW1710): 17.4 nM
- IC50 (A-427): 11.8 nM
- IC50 (U-118-MG): 856 nM
- IC50 (SR): 24.4 nM
- IC50 (T47D): 470 nM
- IC50 (CAL-27): 32.6 nM
- IC50 (NCI-H727): 22.8 nM
- IC50 (SW780): > 1020 nM
- IC50 (NCI-H441): 28.4 nM
- IC50 (NCI-H2030): 28.3 nM
- IC50 (Hs-578T): > 1020 nM
- IC50 (NCI-H1694): 200 nM
- IC50 (NCI-H1651): 11.8 nM
- IC50 (PC-14): 236 nM
- IC50 (HOP-92): 291 nM
- IC50 (NCI-H2122): 37.9 nM
- IC50 (HCT-15): > 1020 nM
- IC50 (NCI-H358): 41.1 nM
- IC50 (SK-MM-2): 942 nM
- IC50 (COLO-679): 16 nM
- IC50 (OE33): 426 nM
- IC50 (HuO-3N1): > 1020 nM
- IC50 (SIMA): 382 nM
- IC50 (NCI-H1793): 901 nM
- IC50 (CaR-1): > 1020 nM
- IC50 (A2058): 17.7 nM
- IC50 (CMK): 77.4 nM
- IC50 (SCC-4): 184 nM
- IC50 (UACC-893): 522 nM
- IC50 (RPMI-7951): 130 nM
- IC50 (BEN): > 1020 nM

Structure (SMILES): O=C(O)c1ccc(-c2c[nH]c3ncc(-c4ccccc4)cc23)cc1C1CCCC1 [GSK-650394]
- IC50 (NCI-H596): > 16000 nM
- IC50 (GMS-10): > 16000 nM
- IC50 (NCI-H650): 6640 nM
- IC50 (AGS): 8560 nM
- IC50 (8305C): > 16000 nM
- IC50 (OPM-2): > 16000 nM
- IC50 (CHL-1): 3500 nM
- IC50 (TCC-SUP): > 16000 nM
- IC50 (YKG-1): 7390 nM
- IC50 (SCC-3): > 16000 nM
- IC50 (HTC-C3): 10700 nM
- IC50 (A2780): > 16000 nM
- IC50 (SK-HEP1): 6340 nM
- IC50 (DOK): > 16000 nM
- IC50 (EHEB): > 16000 nM
- IC50 (NCI-H292): > 16000 nM
- IC50 (COR-L105): > 16000 nM
- IC50 (SW1710): 2700 nM
- IC50 (A-427): 1880 nM
- IC50 (U-118-MG): > 16000 nM
- IC50 (SR): > 16000 nM
- IC50 (T47D): > 16000 nM
- IC50 (CAL-27): 5330 nM
- IC50 (NCI-H727): > 16000 nM
- IC50 (SW780): > 16000 nM
- IC50 (NCI-H441): > 16000 nM
- IC50 (NCI-H2030): > 16000 nM
- IC50 (Hs-578T): > 16000 nM
- IC50 (NCI-H1694): > 16000 nM
- IC50 (NCI-H1651): > 16000 nM
- IC50 (PC-14): > 16000 nM
- IC50 (HOP-92): > 16000 nM
- IC50 (NCI-H2122): 3330 nM
- IC50 (HCT-15): 3630 nM
- IC50 (NCI-H358): 6250 nM
- IC50 (SK-MM-2): > 16000 nM
- IC50 (COLO-679): 5300 nM
- IC50 (OE33): 4970 nM
- IC50 (HuO-3N1): > 16000 nM
- IC50 (SIMA): > 16000 nM
- IC50 (NCI-H1793): > 16000 nM
- IC50 (CaR-1): > 16000 nM
- IC50 (A2058): 13500 nM
- IC50 (CMK): 8250 nM
- IC50 (SCC-4): > 16000 nM
- IC50 (UACC-893): > 16000 nM
- IC50 (RPMI-7951): > 16000 nM
- IC50 (BEN): > 16000 nM
